For data set [1], the system named is Plasmodium falciparum. Kind of data set: Antimalarial activity against chloroquine-sensitive Plasmodium falciparum D6 infected in African green monkey (Cercopithecus aethiops) Vero cells assessed as parasite LDH activity after 72 hrs. In kind it is functional, organism-based.
In data set [2] the test system is Plasmodium falciparum. Kind of data set: Antimalarial activity against chloroquine-resistant Plasmodium falciparum W2 infected in African green monkey (Cercopithecus aethiops) (Cercopithecus aethiops) Vero cells assessed as parasite LDH activity after 72 hrs. Type of data set: functional, organism-based.
Another data set has as its system Vero. Kind of data set: Cytotoxicity against african green monkey Vero cells up to 470 nM by neutral red assay. In kind it is cell-based. The following applies: chlorocebus sabaeus.
Data set [3] relates to Candida albicans. In words: Antifungal activity against Candida albicans by modified NCCLS method. In kind it is functional, organism-based.
Data set [4] relates to Cryptococcus neoformans. Kind of data set: Antifungal activity against Cryptococcus neoformans by modified NCCLS method. In kind it is functional, organism-based.
For data set [5], the system named is Cryptococcus neoformans. Kind of data set: Antifungal activity against Cryptococcus neoformans after 24 hrs by alamar blue assay. In kind it is functional.
Data set [6] has as its system Mycobacterium intracellulare. In words: Antibacterial activity against Mycobacterium intracellular by alamar blue assay. Type of data set: functional, organism-based. A general note: Resazurin is reduced to fluorescent resorufin, in cell work by metabolically active cells.
Data set [7] deals with Mycobacterium intracellulare. Kind of data set: Antibacterial activity against Mycobacterium intracellular after 24 hrs by alamar blue assay. Type of data set: functional.
Data set [8] has as its system Aspergillus fumigatus. Kind of data set: Antifungal activity against Aspergillus fumigatus by modified NCCLS method. In kind it is functional, organism-based.
The test system of the next data set is Escherichia coli. In words: Antibacterial activity against Escherichia coli by modified NCCLS method. Type of data set: functional, organism-based.
For another data set, the system named is Pseudomonas aeruginosa. In words: Antibacterial activity against Pseudomonas aeruginosa by modified NCCLS method. In kind it is functional, organism-based.
Data set [9] has as its system Candida albicans.
Description: Antifungal activity against Candida albicans after 24 hrs by alamar blue assay
The subject of data set [10] is Aspergillus fumigatus.
Description: Antifungal activity against Aspergillus fumigatus after 24 hrs by alamar blue assay
The mark [11] stands for this setting: Cryptococcus neoformans, read-out: IC50.
Setting [12] is: Candida albicans, read-out: IC50.

Molecules are shown by their SMILES. ≈ marks a conversion by molar mass, not a printed value. Calls of active or inactive are those of the source. The calls are words filed in the database; no cut-off is given here. Where only a bound is given, the exact number is not on record here.

As a reminder, the IC50 is the concentration that inhibits the measured activity by half. One may read the MIC as the least concentration at which growth counts as inhibited.

As for `CC(C)(C)CC(=O)Nc1ccc2[nH]c3c(C4=C[C@@]5(O)CC/C=C\CCCCN6CC[C@@H]4[C@]4(C[C@@H]7/C=C\CCCCN7[C@H]45)C6)nccc3c2c1`, the IC50 in the data set on Plasmodium falciparum [1] is 211 nM; in the data set with Plasmodium falciparum [2], 302 nM; in the data set on Candida albicans [3], “Not Active”; in the data set on Cryptococcus neoformans [4] it was “Not Active”; in [6] it was 1360 nM; with Aspergillus fumigatus [8] it was “Not Active”. Moreover, in the data set on Vero, the Activity entry is listed as “Non-toxic”. In addition, the MIC entry with Cryptococcus neoformans [5], in the data set with Candida albicans [9] and in the data set on Aspergillus fumigatus [10] was “inactive” each time. In addition, the minimum inhibitory concentration (MIC) in data set [7] stood at 1.89 µM (≈ 1.25 µg/mL). Besides, the result in the data set on Escherichia coli and with Pseudomonas aeruginosa was inactive.

`CC(C)(C)CC(=O)Nc1cccc2c1[nH]c1c(C3=C[C@@]4(O)CC/C=C\CCCCN5CC[C@@H]3[C@]3(C[C@@H]6/C=C\CCCCN6[C@H]34)C5)nccc12`: the IC50 is 139 nM with Plasmodium falciparum [1]; 127 nM with Plasmodium falciparum [2]; “Not Active” in the data set with Candida albicans [3]; 14400 nM with Cryptococcus neoformans [4] (setting [11]); 1510 nM in data set [6]; “Not Active” in the data set on Aspergillus fumigatus [8]. Moreover, the Activity entry in the data set on Vero is “Non-toxic”. For the same compound, the MIC entry in the data set on Cryptococcus neoformans [5], in the data set on Candida albicans [9] and in the data set on Aspergillus fumigatus [10] was “inactive” throughout. Besides, in data set [7], the MIC was 3.78 µM (≈ 2.5 µg/mL). For the same compound, the result with Escherichia coli and in the data set on Pseudomonas aeruginosa was inactive.

In the case of `Oc1cccc2c1[nH]c1c(C3=C[C@@]4(O)CC/C=C\CCCCN5CC[C@@H]3[C@]3(C[C@@H]6/C=C\CCCCN6[C@H]34)C5)nccc12`, the IC50 with Plasmodium falciparum [1] is 11 nM; in the data set on Plasmodium falciparum [2], 14 nM; with Candida albicans [3] (setting [12]), 6200 nM; with Cryptococcus neoformans [4] (setting [11]) it was 3550 nM; in data set [6] it was 177 nM. In addition, the MIC result in the data set on Candida albicans [9] is “inactive”.

On to `CC(=O)Nc1ccc2[nH]c3c(C4=C[C@@]5(O)CC/C=C\CCCCN6CC[C@@H]4[C@]4(C[C@@H]7/C=C\CCCCN7[C@H]45)C6)nccc3c2c1` [6-ACETAMIDOMANZAMINE A], for which the IC50 in the data set on Plasmodium falciparum [1] is 1290 nM; in the data set on Plasmodium falciparum [2] it was 1980 nM; in the data set on Candida albicans [3] it was “Not Active”; in the data set on Cryptococcus neoformans [4] it was “Not Active”; in [6] it was 9910 nM; with Aspergillus fumigatus [8], “Not Active”. Moreover, the Activity result in the data set with Vero is listed as “Non-toxic”. Besides, the MIC entry with Cryptococcus neoformans [5], in the data set with Candida albicans [9] and in the data set on Aspergillus fumigatus [10] was “inactive” each time. The same compound gave an MIC in data set [7] of 16.5 µM (≈ 10 µg/mL). Moreover, the outcome in the data set with Escherichia coli and in the data set with Pseudomonas aeruginosa was inactive.

Regarding `CC(C)C(=O)Nc1ccc2[nH]c3c(C4=C[C@@]5(O)CC/C=C\CCCCN6CC[C@@H]4[C@]4(C[C@@H]7/C=C\CCCCN7[C@H]45)C6)nccc3c2c1` [6-ISOBUTAMIDOMANZAMINE A], the IC50 in the data set with Plasmodium falciparum [1] is 1100 nM; with Plasmodium falciparum [2], 1550 nM; with Candida albicans [3] it was “Not Active”; in the data set with Cryptococcus neoformans [4], “Not Active”; in [6], 3160 nM; in the data set on Aspergillus fumigatus [8], “Not Active”. Further, the Activity entry in the data set with Vero is given as “Non-toxic”. Also, the MIC result with Cryptococcus neoformans [5], in the data set with Candida albicans [9] and with Aspergillus fumigatus [10] was “inactive” each time. This compound also yielded a minimal inhibitory concentration (MIC) in data set [7] of 3.95 µM (≈ 2.5 µg/mL). Also, the outcome in the data set on Escherichia coli and with Pseudomonas aeruginosa was inactive.

`CCCC(=O)Nc1ccc2[nH]c3c(C4=C[C@@]5(O)CC/C=C\CCCCN6CC[C@@H]4[C@]4(C[C@@H]7/C=C\CCCCN7[C@H]45)C6)nccc3c2c1` [6-N-BUTAMIDOMANZAMINE A]: the half-inhibitory concentration (IC50) with Plasmodium falciparum [1] was 1150 nM; in the data set on Plasmodium falciparum [2] it was 1890 nM; in the data set with Candida albicans [3], “Not Active”; in the data set with Cryptococcus neoformans [4] it was “Not Active”; in data set [6], 4740 nM; in the data set with Aspergillus fumigatus [8] it was “Not Active”. Besides, in the data set with Vero, the Activity entry is given as “Non-toxic”. The MIC entry in the data set with Cryptococcus neoformans [5], in the data set with Candida albicans [9] and with Aspergillus fumigatus [10] was “inactive” in each case. The lowest concentration to inhibit growth in data set [7] (MIC) was 7.89 µM (≈ 5 µg/mL). For the same compound, the result with Escherichia coli and with Pseudomonas aeruginosa was inactive.

`CCCCCC(=O)Nc1ccc2[nH]c3c(C4=C[C@@]5(O)CC/C=C\CCCCN6CC[C@@H]4[C@]4(C[C@@H]7/C=C\CCCCN7[C@H]45)C6)nccc3c2c1` [6-N-HEXAMIDOMANZAMINE A]: the IC50 in the data set on Plasmodium falciparum [1] is 680 nM; in the data set on Plasmodium falciparum [2] it was 786 nM; in the data set on Candida albicans [3] it was “Not Active”; in the data set with Cryptococcus neoformans [4] it was “Not Active”; in data set [6], 15100 nM; in the data set with Aspergillus fumigatus [8], “Not Active”. In addition, the Activity result in the data set with Vero is recorded as “Non-toxic”. The MIC entry in the data set on Cryptococcus neoformans [5], with Candida albicans [9] and in the data set on Aspergillus fumigatus [10] was “inactive” throughout. In data set [7], this compound showed an MIC of 30.2 µM (≈ 20 µg/mL). Further, the result with Escherichia coli and in the data set with Pseudomonas aeruginosa was inactive.

Regarding `CCCCCCC(=O)Nc1ccc2[nH]c3c(C4=C[C@@]5(O)CC/C=C\CCCCN6CC[C@@H]4[C@]4(C[C@@H]7/C=C\CCCCN7[C@H]45)C6)nccc3c2c1` [6-N-OCTAMIDOMANZAMINE A], the concentration for half-maximal inhibition (IC50) with Plasmodium falciparum [1] is 696 nM; with Plasmodium falciparum [2], 754 nM; with Candida albicans [3], “Not Active”; in the data set on Cryptococcus neoformans [4], “Not Active”; in [6] it was 17400 nM; with Aspergillus fumigatus [8], “Not Active”. Also, the Activity result with Vero is reported as “Non-toxic”. In addition, the MIC result with Cryptococcus neoformans [5], in the data set on Candida albicans [9] and in the data set with Aspergillus fumigatus [10] was “inactive” throughout. In [7], this compound displayed an MIC of 29 µM (≈ 19.6 µg/mL). Besides, the outcome in the data set with Escherichia coli and in the data set on Pseudomonas aeruginosa was inactive.

Turning to `CCCCC(=O)Nc1ccc2[nH]c3c(C4=C[C@@]5(O)CC/C=C\CCCCN6CC[C@@H]4[C@]4(C[C@@H]7/C=C\CCCCN7[C@H]45)C6)nccc3c2c1` [6-N-PENTAMIDOMANZAMINE A], the IC50 was 1240 nM with Plasmodium falciparum [1]; 1480 nM in the data set with Plasmodium falciparum [2]; “Not Active” with Candida albicans [3]; “Not Active” in the data set with Cryptococcus neoformans [4]; 2320 nM in [6]; “Not Active” in the data set with Aspergillus fumigatus [8]. Moreover, the Activity entry with Vero is “Non-toxic”. In addition, the MIC entry in the data set on Cryptococcus neoformans [5], with Candida albicans [9] and in the data set with Aspergillus fumigatus [10] was “inactive” in each case. In data set [7], this compound showed a minimal inhibitory concentration (MIC) of 3.86 µM (≈ 2.5 µg/mL). For the same compound, the outcome in the data set with Escherichia coli and with Pseudomonas aeruginosa was inactive.

Regarding `CCC(=O)Nc1ccc2[nH]c3c(C4=C[C@@]5(O)CC/C=C\CCCCN6CC[C@@H]4[C@]4(C[C@@H]7/C=C\CCCCN7[C@H]45)C6)nccc3c2c1` [6-N-PROPAMIDOMANZAMINE A], the IC50 was 1160 nM in the data set with Plasmodium falciparum [1]; 1940 nM in the data set on Plasmodium falciparum [2]; “Not Active” in the data set on Candida albicans [3]; “Not Active” in the data set on Cryptococcus neoformans [4]; 5650 nM in data set [6]; “Not Active” in the data set on Aspergillus fumigatus [8]. The Activity result in the data set on Vero was “Non-toxic”. Also, the MIC result with Cryptococcus neoformans [5], in the data set on Candida albicans [9] and in the data set on Aspergillus fumigatus [10] was “inactive” throughout. This compound gave an MIC in data set [7] of 8.07 µM (≈ 5 µg/mL). The outcome in the data set with Escherichia coli and with Pseudomonas aeruginosa was inactive.

Turning to `CC(C)(C)C(=O)Nc1ccc2[nH]c3c(C4=C[C@@]5(O)CC/C=C\CCCCN6CC[C@@H]4[C@]4(C[C@@H]7/C=C\CCCCN7[C@H]45)C6)nccc3c2c1` [6-PIVALAMIDOANZAMINE A], the 50% inhibitory concentration (IC50) in the data set with Plasmodium falciparum [1] is 231 nM; in the data set with Plasmodium falciparum [2], 417 nM; in the data set on Candida albicans [3] it was “Not Active”; in the data set with Cryptococcus neoformans [4], “Not Active”; in data set [6], 1540 nM; in the data set with Aspergillus fumigatus [8] it was “Not Active”. For the same compound, the Activity entry in the data set with Vero is listed as “Non-toxic”. The MIC result with Cryptococcus neoformans [5], in the data set with Candida albicans [9] and in the data set with Aspergillus fumigatus [10] was “inactive” throughout. The compound also showed a minimum inhibitory concentration (MIC) in data set [7] of 3.86 µM (≈ 2.5 µg/mL). In addition, the outcome in the data set with Escherichia coli and with Pseudomonas aeruginosa was inactive.

With `CCC(=O)Nc1cccc2c1[nH]c1c(C3=C[C@@]4(O)CC/C=C\CCCCN5CC[C@@H]3[C@]3(C[C@@H]6/C=C\CCCCN6[C@H]34)C5)nccc12` [8-N-PROPAMIDOMANZAMINE A], the IC50 in the data set with Plasmodium falciparum [1] is 123 nM; in the data set on Plasmodium falciparum [2] it was 87 nM; in the data set with Candida albicans [3] (setting [12]), above 32300 nM; in data set [6], 1520 nM; in the data set with Aspergillus fumigatus [8] (Aspergillus fumigatus, read-out: IC50), above 32300 nM. Further, the Activity result in the data set on Vero is recorded as “Non-toxic”. Also, the minimal inhibitory concentration (MIC) in data set [7] amounted to 2.02 µM (≈ 1.25 µg/mL). Also, the outcome with Escherichia coli and with Pseudomonas aeruginosa was inactive. Further, the MIC entry with Candida albicans [9] and with Aspergillus fumigatus [10] was “inactive” each time.

Turning to `C[C@@H]1CC[C@H]2[C@@H](C)C(=O)O[C@@H]3O[C@@]4(C)CC[C@@H]1[C@]32OO4` [ARTEMISININ], the figures for the 50% inhibitory concentration (IC50) in the data set on Plasmodium falciparum [1] and in the data set with Plasmodium falciparum [2] were 46 nM and 28 nM, respectively.

With `O=C(O)c1cn(C2CC2)c2cc(N3CCNCC3)c(F)cc2c1=O` [CIPROFLOXACIN], the IC50 in data set [6] came to 1060 nM.

These data come from ChEMBL document CHEMBL1152671, “Structure-activity relationship studies of manzamine A: amidation of positions 6 and 8 of the beta-carboline moiety” (Bioorg Med Chem, 2009).
